Article PMC10000267, “ALA‐A2 Is a Novel Anticancer Peptide Inspired by Alpha‐Lactalbumin: A Discovery from a Computational Peptide Library, In Silico Anticancer Peptide Screening and In Vitro Experimental Validation” (Global Challenges, 2023)
Residues, ends and D or L forms follow the SMILES beside them.

Tested on: A549 lung adenocarcinoma cells
Conditions: A549, 200 µM, 24 h; SWATH; n = 9 per group
Method: In brief, A549 lung adenocarcinoma cells were seeded at a density of 1 × 10^5 cells/well in a 24‐well plate. After overnight incubation, the media were changed with fresh media with or without 200 µM ALA‐A2 and incubated at 37 °C in 5%CO2 for 24 h. The cells were washed twice with PBS before lysis with Laemmli lysis buffer (62.5 mM Tris‐HCl, pH 6.8, 10% v/v glycerol, 2% w/v SDS, and 2.5% v/v beta‐mercaptoethanol). Total protein was quantified using the Bradford protein assay (Bio‐Rad, Hercules, USA). 10 µg of protein was resolved by 12% SDS–PAGE before staining with Coomassie brilliant blue G‐250, and the gel was cut into small pieces for in‐gel tryptic digestion. An amount of peptide sample corresponding to 2.5 µg of total protein was resolved in an Eksigent nanoLC ultra nanoflow high performance liquid chromatography in tandem with a TripleTOF 6600+ mass spectrometer (ABSciex, Toronto, Canada) set for information‐dependent acquisition (IDA) and DIA modes. The peptides were loaded onto a C18 column trap (Nano Trap RP‐1, 3 µm 120 Å, 10 mm × 0.075 mm; Phenomenex, CA, USA) at a flow rate of 3 µL min^−1 of 0.1% formic acid in water for 10 min to desalt and concentrate the sample, which was then resolved by HPLC using a stationary phase of a C18 analytical column (bioZen Peptide Polar C18 nanocolumn, 75 µm × 15 cm, particle size 3 µm, 120 Å; Phenomenex) with mobile phase gradients at a flow rate of 300 nL min^−1 of 3–30% acetonitrile/0.1% formic acid for 60 min, 30–40% acetonitrile/0.1% formic acid for 10 min, 40–80% acetonitrile/0.1% formic acid for 2 min, 80% acetonitrile/0.1% formic acid for 6 min, 80–3% acetonitrile/0.1% formic acid for 2 min, and 3% acetonitrile/0.1% formic acid for 25 min. The eluate was ionized and sprayed into the mass spectrometer using OptiFlow Turbo V Source (Sciex). Ion source gas 1, ion source gas 2, and curtain gas were set at 19, 0, and 25 vendor arbitrary units, respectively. The interface heater temperature was 150 °C and ion spray voltage was 3.3 kV.
Each cycle performed one time of flight (TOF) scan (250 ms accumulation time, 350–1250 m/z window with a charge state of +2) followed by IDA of the 100 most intense ions, while the minimum MS signal was set to 150 counts. The MS/MS scan was operated in high sensitivity mode with 50 ms accumulation time and 50 ppm mass tolerance. Former MS/MS candidate ions were excluded for a period of 12 s after their first occurrence to reduce the redundancy of identified peptides. DIA mode was performed in a range of 350–1500 m/z using a predefined mass window of 7‐m/z with an overlap of 1‐m/z for 157 transmissible windows. MS scan was set at 2044 cycles, where each cycle performed one TOF‐MS scan type (50 ms accumulation time across 100–1500 precursor mass range) acquired in every cycle for a total cycle time of 3.08 s. MS spectra of 100–1500 m/z were collected with an accumulation time of 96 ms per SWATH window width. Resolution for MS1 was 35 000 and SWATH‐MS2 scan was 30 000. Rolling collision energy mode with collision energy spread of 15 eV was applied. The IDA and DIA data (.wiff) were recorded by Analyst‐TF v.1.8 software (ABSciex).
A total of 18 wiff files of IDA experiments (two groups; three biological replicates per group; three technical replicates per biological sample) were combined and searched using Protein Pilot v.5.0.2.0 software (ABSciex) against the Swiss‐Prot database (UniProtKB 2022_01) Homo sapiens (20385 proteins in database) with the searching parameters as follows; alkylation on cysteine by iodoacetamide, trypsin enzymatic digestion, one missed cleavage allowed, monoisotopic mass, and 1% false discovery rate.

CC(C)C[C@H](NC(=O)[C@@H](N)CCCCN)C(=O)N[C@@H](Cc1c[nH]c2ccccc12)C(=O)N[C@@H](CS)C(=O)N[C@@H](CCCCN)C(=O)N[C@@H](CO)C(=O)N[C@@H](CO)C(=O)N[C@@H](CCC(N)=O)C(=O)N[C@H](C(=O)N1CCC[C@H]1C(=O)N[C@@H](CCC(N)=O)C(=O)N[C@@H](CO)C(=O)N[C@@H](CCCNC(=N)N)C(=O)O)C(C)C [ALA‐A2] (H-KLWCKSSQVPQSR-OH)
Fold‐change [treated/ untreated]: 40S ribosomal protein SA (RSSA, P08865): 0.25
Fold‐change [treated/ untreated]: 60S ribosomal protein L6 (RL6, Q02878): 2.87
Fold‐change [treated/ untreated]: Actin, cytoplasmic 2 (ACTG, P63261): 0.09
Fold‐change [treated/ untreated]: Aldo‐keto reductase family 1 member B10 (AK1BA, O60218): 0.29
Fold‐change [treated/ untreated]: Annexin A4 (ANXA4, P09525): 2.98
Fold‐change [treated/ untreated]: Annexin A7 (ANXA7, P20073): 3.29
Fold‐change [treated/ untreated]: Chloride intracellular channel protein 1 (CLIC1, O00299): 3.02
Fold‐change [treated/ untreated]: Elongation factor 1‐alpha‐like 3 (EF1A3, Q5VTE0): 0.15
Fold‐change [treated/ untreated]: Elongation factor 1‐gamma (EF1G, P26641): 0.31
Fold‐change [treated/ untreated]: Endoplasmin (ENPL, P14625): 0.38
Fold‐change [treated/ untreated]: Glyceraldehyde‐3‐phosphate dehydrogenase (G3P, P04406): 0.32
Fold‐change [treated/ untreated]: Heat shock 70 kDa protein 8 (HSPA8, P11142): 0.25
Fold‐change [treated/ untreated]: Heat shock protein HSP90 alpha (HSP90AA1, P07900): 0.26
Fold‐change [treated/ untreated]: Heat shock protein HSP90 beta (HSP90AB1, P08238): 0.40
Fold‐change [treated/ untreated]: Heterogeneous nuclear ribonucleoprotein A/B (ROAA, Q99729): 2.35
Fold‐change [treated/ untreated]: Heterogeneous nuclear ribonucleoproteins A2/B1 (ROA2, P22626): 0.25
Fold‐change [treated/ untreated]: Histone H1.3 (H13, P16402): 0.32
Fold‐change [treated/ untreated]: Histone H2A type 2‐A (H2A2A, Q6FI13): 0.48
Fold‐change [treated/ untreated]: Histone H4 (H4, P62805): 0.26
Fold‐change [treated/ untreated]: Hsp70‐binding protein 1 (HPBP1, Q9NZL4): 0.48
Fold‐change [treated/ untreated]: Importin‐5 (IPO5, O00410): 2.22
Fold‐change [treated/ untreated]: Junction plakoglobin (PLAK, P14923): 2.05
Fold‐change [treated/ untreated]: Keratin, type I cytoskeletal 18 (K1C18, P05783): 0.35
Fold‐change [treated/ untreated]: Keratin, type I cytoskeletal 19 (K1C19, P08727): 0.34
Fold‐change [treated/ untreated]: Leucine‐rich PPR motif‐containing protein (LPPRC, P42704): 2.06
Fold‐change [treated/ untreated]: Neurofibromin (NF1, P21359): 0.07
Fold‐change [treated/ untreated]: Peroxiredoxin‐1 (PRDX1, Q06830): 0.26
Fold‐change [treated/ untreated]: Pyruvate kinase PKM (KPYM, P14618): 0.43
Fold‐change [treated/ untreated]: RNA‐binding protein Raly (RALY, Q9UKM9): 3.57
Fold‐change [treated/ untreated]: Serine/arginine‐rich splicing factor 3 (SRSF3, P84103): 0.33
Fold‐change [treated/ untreated]: TAR DNA‐binding protein 43 (TADBP, Q13148): 4.07
Fold‐change [treated/ untreated]: Threonine‐tRNA ligase 1 (SYTC, P26639): 2.61
Fold‐change [treated/ untreated]: Transaldolase (TALDO, P37837): 0.43
Fold‐change [treated/ untreated]: Transketolase (TKT, P29401): 0.35
Fold‐change [treated/ untreated]: Tubulin beta chain (TBB5, P07437): 0.27
Fold‐change [treated/ untreated]: T‐complex protein 1 subunit delta (TCPD, P50991): 2.39
Fold‐change [treated/ untreated]: T‐complex protein 1 subunit gamma (TCPG, P49368): 0.46
Fold‐change [treated/ untreated]: Ubiquitin‐60S ribosomal protein L40 (UBA52, P62987): 0.41
